Experimental data reported in BindingDB's records for patent US20250122221 (Nanjing Zaiming Pharmaceutical, 2025).
pIC50: −log10 of the molar value.

Molecular target: DNA polymerase theta (Homo sapiens, UniProt O75417)
Test: POLQ Enzyme Activity Inhibition Assay
Protocol: The compounds to be tested were diluted to different concentrations in dimethyl sulfoxide (DMSO) using the Echo 650 pipetting system, and transferred to a 384-well plate, 20 μL/well of 100 nM POLQ was added, and the mixture was incubated at room temperature for 15 minutes. […] 20 μL/well of reaction mixture solution was added to start the enzyme reaction. […] The concentration range was from 10 μM to 0.0005 μM, and the final concentration of DMSO in the system was 0.2% v/v. The 384-well plate was reacted at room temperature for 20 minutes, and then the OD value at 340 nm was read with an Envision microplate reader.

DNA polymerase theta, sequence (O75417 whole entry): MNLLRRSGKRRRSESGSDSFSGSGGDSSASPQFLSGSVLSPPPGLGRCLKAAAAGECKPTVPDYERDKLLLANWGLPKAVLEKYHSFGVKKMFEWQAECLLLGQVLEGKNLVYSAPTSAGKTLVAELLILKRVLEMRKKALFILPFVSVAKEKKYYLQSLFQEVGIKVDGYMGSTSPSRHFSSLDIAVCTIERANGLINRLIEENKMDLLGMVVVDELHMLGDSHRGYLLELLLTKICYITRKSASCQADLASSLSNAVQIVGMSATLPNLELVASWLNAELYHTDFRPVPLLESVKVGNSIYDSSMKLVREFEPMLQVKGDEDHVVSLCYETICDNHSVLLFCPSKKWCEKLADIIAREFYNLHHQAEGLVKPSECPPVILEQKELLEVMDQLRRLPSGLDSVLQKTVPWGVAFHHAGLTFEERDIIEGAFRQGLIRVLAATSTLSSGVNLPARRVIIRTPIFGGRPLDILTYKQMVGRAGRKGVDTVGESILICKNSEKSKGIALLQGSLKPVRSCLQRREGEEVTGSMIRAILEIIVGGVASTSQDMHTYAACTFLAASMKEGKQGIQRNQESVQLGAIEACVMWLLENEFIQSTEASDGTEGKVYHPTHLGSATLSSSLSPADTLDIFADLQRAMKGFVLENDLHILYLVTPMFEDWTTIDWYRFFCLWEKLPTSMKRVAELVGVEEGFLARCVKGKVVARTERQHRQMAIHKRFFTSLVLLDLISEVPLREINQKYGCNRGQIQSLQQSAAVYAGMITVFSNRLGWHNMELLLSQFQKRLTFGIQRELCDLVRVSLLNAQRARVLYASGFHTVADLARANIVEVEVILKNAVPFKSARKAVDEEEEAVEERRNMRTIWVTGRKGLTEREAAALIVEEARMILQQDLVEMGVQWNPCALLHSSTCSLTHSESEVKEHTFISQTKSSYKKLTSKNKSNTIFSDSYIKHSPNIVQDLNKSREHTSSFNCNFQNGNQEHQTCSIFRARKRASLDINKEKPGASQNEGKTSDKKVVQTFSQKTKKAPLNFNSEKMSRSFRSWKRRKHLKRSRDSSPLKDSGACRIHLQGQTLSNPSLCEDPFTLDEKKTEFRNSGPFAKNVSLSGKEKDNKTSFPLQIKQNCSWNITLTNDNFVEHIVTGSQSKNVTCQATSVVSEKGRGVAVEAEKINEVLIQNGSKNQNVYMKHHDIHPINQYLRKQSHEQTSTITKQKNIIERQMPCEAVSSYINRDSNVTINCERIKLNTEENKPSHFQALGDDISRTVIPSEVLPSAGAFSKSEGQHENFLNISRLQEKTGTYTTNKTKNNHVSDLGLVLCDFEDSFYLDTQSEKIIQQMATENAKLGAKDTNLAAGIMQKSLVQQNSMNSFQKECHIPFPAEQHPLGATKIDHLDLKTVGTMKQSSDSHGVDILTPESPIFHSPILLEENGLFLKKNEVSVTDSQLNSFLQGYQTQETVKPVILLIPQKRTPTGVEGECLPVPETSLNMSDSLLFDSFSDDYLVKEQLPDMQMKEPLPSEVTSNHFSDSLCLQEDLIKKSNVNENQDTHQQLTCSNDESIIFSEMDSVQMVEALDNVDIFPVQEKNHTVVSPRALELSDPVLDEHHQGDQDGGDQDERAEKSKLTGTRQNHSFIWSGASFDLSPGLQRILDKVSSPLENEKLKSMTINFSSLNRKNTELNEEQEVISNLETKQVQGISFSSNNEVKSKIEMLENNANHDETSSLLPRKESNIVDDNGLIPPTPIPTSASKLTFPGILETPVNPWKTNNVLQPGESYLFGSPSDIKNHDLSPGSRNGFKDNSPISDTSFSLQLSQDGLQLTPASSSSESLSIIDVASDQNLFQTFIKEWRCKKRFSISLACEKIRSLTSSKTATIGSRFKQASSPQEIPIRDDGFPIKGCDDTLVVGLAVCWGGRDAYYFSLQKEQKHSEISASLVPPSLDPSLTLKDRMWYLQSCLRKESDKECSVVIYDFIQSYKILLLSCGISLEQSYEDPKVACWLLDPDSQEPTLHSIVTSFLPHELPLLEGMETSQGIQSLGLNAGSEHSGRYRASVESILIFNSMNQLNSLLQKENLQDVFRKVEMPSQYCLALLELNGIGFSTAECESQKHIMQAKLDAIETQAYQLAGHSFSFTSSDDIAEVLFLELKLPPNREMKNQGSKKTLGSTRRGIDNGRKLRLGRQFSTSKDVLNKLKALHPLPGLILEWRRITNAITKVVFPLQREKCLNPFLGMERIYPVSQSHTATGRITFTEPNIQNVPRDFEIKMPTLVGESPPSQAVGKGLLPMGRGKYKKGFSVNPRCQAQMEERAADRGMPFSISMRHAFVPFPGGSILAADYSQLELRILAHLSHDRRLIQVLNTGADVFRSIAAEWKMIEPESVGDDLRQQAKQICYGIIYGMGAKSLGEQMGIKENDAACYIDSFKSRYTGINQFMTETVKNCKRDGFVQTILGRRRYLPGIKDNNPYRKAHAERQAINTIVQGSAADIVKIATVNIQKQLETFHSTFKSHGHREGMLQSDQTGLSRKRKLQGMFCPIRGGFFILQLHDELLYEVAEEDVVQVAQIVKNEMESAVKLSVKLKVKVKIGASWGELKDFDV

pIC50: > 7.00
SMILES: COc1ccccc1-c1cc2c(cc1C(=O)Nc1nc3ncc(-c4ccc(C#N)cc4)nc3s1)OCO2 [US20250122221, Compound 56]
